Source: PMC10272112 (Nature Communications, 2023)
Like-named read-outs stand apart in the source and are kept apart here.

Experiments:
Format in all cases: binding
[1] = biological target: T1, HDAC10 (Homo sapiens, UniProt Q969S8); test: Chemoproteomic competition pulldown assay
T1 construct: host or cells: HeLa mono-clones, stably expressing
T1 sequence (Q969S8 1-669): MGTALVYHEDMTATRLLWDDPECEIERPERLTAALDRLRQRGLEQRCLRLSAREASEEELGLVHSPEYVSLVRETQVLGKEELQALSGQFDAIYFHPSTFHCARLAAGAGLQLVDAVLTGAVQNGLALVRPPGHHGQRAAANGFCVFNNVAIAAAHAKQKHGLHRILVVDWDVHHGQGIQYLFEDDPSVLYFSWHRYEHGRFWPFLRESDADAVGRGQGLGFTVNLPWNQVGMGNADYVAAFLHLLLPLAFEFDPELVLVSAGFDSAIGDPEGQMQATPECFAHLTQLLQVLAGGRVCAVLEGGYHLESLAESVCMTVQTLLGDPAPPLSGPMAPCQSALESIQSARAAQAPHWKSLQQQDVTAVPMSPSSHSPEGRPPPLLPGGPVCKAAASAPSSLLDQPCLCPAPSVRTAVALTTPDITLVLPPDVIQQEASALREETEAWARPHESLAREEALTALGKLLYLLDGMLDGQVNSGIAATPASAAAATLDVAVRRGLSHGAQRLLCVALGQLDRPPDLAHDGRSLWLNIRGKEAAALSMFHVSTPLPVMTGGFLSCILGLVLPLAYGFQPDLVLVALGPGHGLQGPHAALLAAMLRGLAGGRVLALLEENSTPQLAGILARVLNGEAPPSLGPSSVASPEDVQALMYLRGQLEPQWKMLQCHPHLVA
Protocol: (§1) To identify proteins directly bound by lipoic acid, we employed a chemoproteomic competition assay. Briefly, (R/S)-LA was immobilized on sepharose beads via an amidation reaction to form an affinity matrix (abbreviated as iL; Fig. 1a). This affinity matrix can be incubated with cell lysate to pull down potential LA or LM target proteins and identify these targets via bottom-up proteomics. In a competition assay, free LA or LM were incubated with lysate at different concentrations before pulling down and quantifying target proteins. […] (Fig. 1b, see “Methods” for details). […] The lysate buffer used in this assay contains 1 mM DTT to mimic the intracellular reductive milieu and to reduce lipoic acid and LM. […] Additional competition assays performed in lung adenocarcinoma cell A549 lysate also identified HDAC1, HDAC2, and HDAC6 as targets (Supplementary Fig. 1b). Amongst the three cell lines tested, HDACs were the only confidently identified targets across the 1500–3000 proteins quantified in these assays. […] We validated the results by analogous pulldown competition assays using two other affinity matrices prepared via the immobilization of either the HDAC inhibitor Quisinostat (iQ) and an analog of the class IIa HDAC inhibitor Bürli’s 31[14] (iC)[12]. We have previously shown that these affinity matrices specifically bind to the active sites of HDACs and have used them for HDACi selectivity profiling. Indeed, binding of (R/S)-LA and (R/S)-LM to HDAC1, HDAC2, HDAC3, HDAC6, and, to a lesser extent, HDAC8 was confirmed in these assays (Supplementary Fig. 1c, d). No binding to class IIa HDACs or the recently discovered common HDAC inhibitor off-target MBLAC2 was observed (Supplementary Fig. 1e)[12]. […] This observation might reflect electrostatic repulsion between the HDAC10 active site gate-keeper glutamic acid residues[15],[16] and the terminal carboxylic acid of LA.
(§2) To assess the degree of protein depletion from lysates by the affinity matrix, a second pulldown (PDPD) with fresh beads was performed using the unbound protein fraction from the vehicle control flow through. The beads were washed (1 × 1 mL of lysis buffer without inhibitors and only 0.4% Igepal, 2 × 2 mL of lysis buffer without inhibitors and only 0.2% Igepal), and captured proteins were denatured with 8 M urea buffer, alkylated with 55 mM chloroacetamide and digested with Trypsin according to standard procedures. The resulting peptides were desalted on a C18 filter plate (Sep-Pak® tC18 µElution Plate, Waters), vacuum dried, and stored at −20 °C until LC–MSMS measurement.
(§3) For the competition assays, relative binding was calculated based on the protein intensity ratio to the DMSO control for every single inhibitor concentration. EC50 values were derived from a four-parameter log-logistic regression with variable slope (constrain: bottom > 0). The obtained EC50 values were multiplied with a protein-dependent correction factor (cf), resulting in the apparent Kd value (Kd^app). The correction factor is determined by calculating the ratio of the protein intensity of two consecutive pulldowns of the vehicle control sample[13]. Targets of the inhibitors were annotated manually according to published procedures[12],[46],[47]. […] Additionally, the number of unique peptides and MSMS counts per condition were taken into account. Positive target binding across several independent experiments performed with different cell lysates further substantiated our confidence for a true positive drug-target binding event.

[2] = test system: TBL1XR1 (Homo sapiens); test: Chemoproteomic competition pulldown assay (co-competed NCoR partner); details: iQ, SW620 lysate
Protocol: as §1, §2, §3

[3] = biological target: T2, TwinStrep-GST-HDAC10 (Homo sapiens, UniProt Q969S8); test: HDAC10 TR-FRET assay; details: reducing conditions (0.5 M TCEP)
T2 sequence (Q969S8 1-669): T1 sequence (Q969S8 1-669)
Protocol: To validate the inhibition of HDACs by LA and LM and elaborate on the structure-activity relationship (SAR) of enantiomers as well as oxidized versus reduced forms of the molecules, we performed enzyme activity assays for recombinant HDAC1,2,3,6,8 as well as FRET-based binding assay for recombinant HDAC10.
Inhibitors with a D300e Digital Dispenser (Tecan). After drug dosing to the premixed assay reagents in buffer, plates were shaken (800 rpm orbital shaker, 30 s), centrifuged (300g, 1 min), and incubated at RT in the dark for 90 min. TR-FRET was measured with a CLARIOstar (BMG Labtech) plate reader, equipped with TR-FRET filters.

[4] = biological target: HDACs (HDAC1, HDAC2, HDAC6); test: Chemoproteomic competition pulldown assay (HDAC panel)
Protocol: as §1
To assess the degree of protein depletion from lysates by the affinity matrix, a second pulldown (PDPD) with fresh beads was performed using the unbound protein fraction from the vehicle control flow through. The beads were washed (1 × 1 mL of lysis buffer without inhibitors and only 0.4% Igepal, 2 × 2 mL of lysis buffer without inhibitors and only 0.2% Igepal), and captured proteins were denatured with 8 M urea buffer, alkylated with 55 mM chloroacetamide and digested with Trypsin according to standard procedures. […]
For the competition assays, relative binding was calculated based on the protein intensity ratio to the DMSO control for every single inhibitor concentration. […] The correction factor is determined by calculating the ratio of the protein intensity of two consecutive pulldowns of the vehicle control sample[13]. […]

[5] = iQ, SW620, read-out: pKdapp (converted)
[6] = iQ, SW620 lysate, log10 M -3.52288
[7] = iQ, SW620 lysate, log10 M -4.52288
[8] = iQ, SW620 lysate, log10 M -5.52288
[9] = iQ, SW620 lysate, log10 M -6.52288
[10] = iL, SW620 lysate, 1 mM DTT, range over HDAC1, HDAC2, HDAC6, read-out: affinities (Kd app)

Sequence of TBL1XR1 (Homo sapiens) (O15379 whole entry): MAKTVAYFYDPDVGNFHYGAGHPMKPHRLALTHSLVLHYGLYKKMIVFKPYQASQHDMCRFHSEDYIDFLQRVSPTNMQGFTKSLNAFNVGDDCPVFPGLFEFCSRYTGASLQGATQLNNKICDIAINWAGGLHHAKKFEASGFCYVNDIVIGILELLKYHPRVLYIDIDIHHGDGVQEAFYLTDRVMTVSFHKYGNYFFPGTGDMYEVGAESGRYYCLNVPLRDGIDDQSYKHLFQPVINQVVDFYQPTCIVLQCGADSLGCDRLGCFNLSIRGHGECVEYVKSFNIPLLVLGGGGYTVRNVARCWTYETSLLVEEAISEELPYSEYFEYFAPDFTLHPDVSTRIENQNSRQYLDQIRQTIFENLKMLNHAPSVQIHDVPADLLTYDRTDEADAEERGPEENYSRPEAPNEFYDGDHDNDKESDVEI
Sequence of TBL1XR1 (Homo sapiens) (Q9BZK7 2-514, further chain): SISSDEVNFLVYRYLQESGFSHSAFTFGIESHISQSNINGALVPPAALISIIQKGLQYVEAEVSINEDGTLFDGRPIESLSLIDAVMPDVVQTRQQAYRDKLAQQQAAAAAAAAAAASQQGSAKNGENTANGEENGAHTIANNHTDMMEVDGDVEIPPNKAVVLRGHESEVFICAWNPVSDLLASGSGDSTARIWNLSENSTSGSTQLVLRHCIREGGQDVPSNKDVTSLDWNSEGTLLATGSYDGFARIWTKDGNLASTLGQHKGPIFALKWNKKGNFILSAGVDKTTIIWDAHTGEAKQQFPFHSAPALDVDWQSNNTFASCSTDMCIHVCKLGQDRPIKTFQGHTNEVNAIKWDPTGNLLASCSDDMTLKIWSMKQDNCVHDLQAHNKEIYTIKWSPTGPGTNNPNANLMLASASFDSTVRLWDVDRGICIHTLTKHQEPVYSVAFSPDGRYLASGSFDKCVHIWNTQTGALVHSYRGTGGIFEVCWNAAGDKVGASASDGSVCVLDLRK

| Compound | HDAC10 binding in competition assays [1] | Kd [1, 5] | relative binding vs DMSO [1, 6] | relative binding vs DMSO ([1]; iQ, SW620 lysate, log10 M -4) | relative binding vs DMSO [1, 7] | relative binding vs DMSO ([1]; iQ, SW620 lysate, log10 M -5) | relative binding vs DMSO [1, 8] | relative binding vs DMSO ([1]; iQ, SW620 lysate, log10 M -6) | relative binding vs DMSO [1, 9] | relative binding vs DMSO ([1]; iQ, SW620 lysate, log10 M -7) | relative binding vs DMSO ([2]; log10 M -3.52288) | relative binding vs DMSO ([2]; log10 M -4) | relative binding vs DMSO ([2]; log10 M -4.52288) | relative binding vs DMSO ([2]; log10 M -5) | relative binding vs DMSO ([2]; log10 M -5.52288) | relative binding vs DMSO ([2]; log10 M -6) | relative binding vs DMSO ([2]; log10 M -6.52288) | relative binding vs DMSO ([2]; log10 M -7) | fold lower affinity to HDAC10 compared to Vorinostat [3] | Kd [4, 10] | also measured |
| --- | --- | --- | --- | --- | --- | --- | --- | --- | --- | --- | --- | --- | --- | --- | --- | --- | --- | --- | --- | --- | --- |
| O=C(O)CCCCC1CCSS1 (racemic) [(R/S)-LA, (R/S)-lipoic acid] | does not bind HDAC10 | > 316 µM | 0.8351 | 1.0789 | 0.7975 | 1.279 | 1.261 | 1.294 | 1.332 | 1.395 | 0.2899 | 0.4212 | 0.5577 | 0.7209 | 0.9534 | 0.8832 | 1.088 | 1.002 | ~200 fold | 3 to 33 µM | EC50 ([4]; peer review response, read-out: EC50 in chemoproteomic competition assays): 5 to 30 µM; Kd ([4]; peer review response, read-out: potency of target binding (Kd)): 5 to 30 µM |
| NC(=O)CCCCC1CCSS1 (racemic) [(R/S)-LM, (R/S)-lipoamide] | binds HDAC10 with an even higher affinity than other HDACs | 3.16 µM | 0.03275 | 0.4253 | 0.3482 | 0.4143 | 0.681 | 0.6621 | 0.6582 | 0.9909 | 0.1308 | 0.176 | 0.3741 | 0.8567 | 0.9248 | 0.9851 | 0.8544 | 0.9921 | 5 fold | 3 to 33 µM | relative binding vs DMSO ([1]; iL, MV4-11 lysate, log10 M -3.52288): 0.04424; relative binding vs DMSO ([1]; iL, MV4-11 lysate, log10 M -4): 0.1432; relative binding vs DMSO ([1]; iL, MV4-11 lysate, log10 M -4.52288): 0.2397; relative binding vs DMSO ([1]; iL, MV4-11 lysate, log10 M -5): 0.4705; relative binding vs DMSO ([1]; iL, MV4-11 lysate, log10 M -5.52288): 0.6761; relative binding vs DMSO ([1]; iL, MV4-11 lysate, log10 M -6): 0.5589; relative binding vs DMSO ([1]; iL, MV4-11 lysate, log10 M -6.52288): 0.7984; relative binding vs DMSO ([1]; iL, MV4-11 lysate, log10 M -7): 0.7331; Kd ([1]; iL, MV4-11 lysate, read-out: Kd app): 5 µM; Kd ([1]; iL, MV411, read-out: pKdapp (converted)): 3.16 µM |
